The target in assay [1] is C20 antibody capture of recombinant PCNA (Homo sapiens, UniProt P12004). The assay can be described thus: Sandwich ELISA with C20 capture antibody and competing peptide. It counts as binding. The note with it: C20 capture 1 μg/well, Ab126 detection; peptide 0.024-2400 ng/well; FIG. 15B. As for the experimental part:
(§1) A sandwich ELISA was performed in which either the csPCNA specific Ab126 antibody (1 μg/well) or the non-specific PCNA antibody C20 (1 μg/well) was immobilized to the ELISA plate, and used to capture the recombinant PCNA used in the assay. Residual binding sites on the ELISA plate were blocked with BSA, and recombinant PCNA was incubated with the immobilized capture antibody in the presence of a range of concentrations of competing peptide (UMPB6—(0.024 ng/well-2400 ng/well)). After washing off unbound PCNA, the bound protein was detected with the C20 antibody in the first case, and with Ab126 in the second case. These detection antibodies were added to each well of the ELISA plate. The appropriate alkaline phosphatase conjugated secondary anti-rabbit or anti-goat IgG antibody was incubated with the bound antibody in each of the ELISA plate wells, and after washing away non-specifically bound antibody with PBS-0.05% Tween 20, the amount of detection antibody bound to the captured PCNA was determined by incubating the secondary antibody remaining in each well with 1 mg/ml of p-nitrophenolphosphate for 30 minutes.
(In general: ELISA stands for enzyme-linked immunosorbent assay.)

Assay [2] has as its target Ab126 capture of the csPCNA isoform present in recombinant PCNA (Homo sapiens, UniProt P12004). As to the kind of experiment: Sandwich ELISA with Ab126 capture antibody and competing peptide. The note with it: Ab126 capture 1 μg/well, C20 detection; peptide 0.024-2400 ng/well; FIG. 15B. In kind it is binding. As for the experimental part:
as §1

Where no end group is shown, it is not given here.

Sequence of Ab126 capture of the csPCNA isoform present in recombinant PCNA (P12004 whole entry, canonical isoform): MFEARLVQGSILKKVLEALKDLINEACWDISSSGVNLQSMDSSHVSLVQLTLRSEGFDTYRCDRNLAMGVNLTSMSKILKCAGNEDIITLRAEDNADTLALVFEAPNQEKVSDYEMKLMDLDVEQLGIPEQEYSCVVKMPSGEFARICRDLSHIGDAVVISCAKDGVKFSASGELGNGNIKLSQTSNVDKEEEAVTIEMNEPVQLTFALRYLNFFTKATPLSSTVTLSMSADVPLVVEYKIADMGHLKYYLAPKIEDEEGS
Sequence of C20 antibody capture of recombinant PCNA (P12004 whole entry): as the sequence (P12004 whole entry, canonical isoform) above

For LGIPEQEY [UMPB6], the “effect on ability of C20 antibody to capture recombinant PCNA” value in assay [1] is given as “no detectable effect”. Besides, the “apparent IC50 for competing for the capture antibody” value in assay [2] is listed as “over 1 μg/well”.

These data come from patent publication US9006396B2, “CsPCNA isoform antibodies and uses thereof” (priority 2005, dated 2015).
